Experimental data reported in patent US20100280118A1, “Methods for treating substance dependence” (The Scripps Research Institute, priority 2007, published 2010).
Marks after values point to notes of the source that are not given here.

How the values were obtained:
[1] = test system: outpatients with current cannabis dependence; test: 12-week randomized, double-blind, placebo-controlled trial of gabapentin 1200 mg/d in cannabis dependence
[2] = test system: outpatients with alcohol dependence; test: 12-week double-blind, placebo-controlled, dose-ranging study of gabapentin 900 or 1800 mg/day in alcohol dependence; assay type: in vivo, human; details: for Cohen's d, drinks per drinking day: interim analysis
Experimental: This example describes the study of gabapentin treatment of subjects suffering from alcohol dependence. A 12-week, double-blind, placebo-controlled, dose-ranging study was conducted with random assignment to gabapentin 900 mg/day, 1800 mg/day, or placebo. Subjects are outpatients with alcohol dependence. The 3 pharmacological treatment conditions were administered in conjunction with manual-guided behavioral counseling that incorporates strategies to increase motivation, abstinence, and medication compliance. Counseling and research assessments occurred weekly throughout the 12-week treatment phase. Post-treatment assessments occurred at Weeks 13, 24, and 36.
The criteria for inclusion are as follows: (1) Males or females over 18 years of age; (2) Meets DSM-IV criteria for current alcohol dependence; (3) Seeking research-based outpatient treatment for alcohol problems; (4) Abstinent from alcohol a minimum of 3 days to a maximum of 30 days at the time of randomization; and (5) Willing to attend 12 weekly study visits and 3 follow-up visits. The criteria for exclusion are as follows: (1) Currently meets DSM-IV criteria for dependence on substances other than alcohol, nicotine or caffeine; (2) Significant medical disorders that will increase potential risk or interfere with study participation, e.g., plasma […] >1.4 mg/dL; (3) Sexually active female subjects with childbearing potential who are pregnant, nursing or refuse to use a reliable method of birth control; (4) Meets DSM-IV criteria for a major AXIS I disorder other than alcohol dependence, including depressive and anxiety disorders, and is in need of, or currently undergoing, pharmacotherapy; (5) Inability to understand and/or comply with the provisions of the protocol and consent form; (6) Treatment with an investigational drug during the previous month; (7) Sensitivity to study drug as evidenced by adverse drug experiences with gabapentin or its ingredients; (8) Ongoing treatment with disulfuram (Antabuse), naltrexone (ReVia®), acamprosate (Campral®) or other medications that may affect study outcomes, e.g., anticonvulsants; (9) More than one month of abstinence prior to randomization; (10) Subjects who require medicated detoxification (Note: Subjects may proceed with study evaluation after completion of detoxification); (11) Subjects for whom treatment of alcoholism is being mandated by a legal authority; (12) Unable to identify at least one collateral informant to verify drinking status at baseline and monthly during study, and to assist in tracking subjects for follow-up assessments; or (13) Subjects who plan to move out of the geographic area served by the Clinic prior to study completion.
Primary outcome of the treatment was assesses with the following measures. Timeline Followback Interview (TLFB; Sobell and Sobell, 1992) provides quantity and frequency estimates of alcohol intake at baseline and throughout the study using a standard drinks format (Research Nurse, 20 minutes at screening and Week 24 and 36 follow-up visits, 5 minutes at weekly study visits). […] Therefore, TLFB data is supported by weekly breathalyzers and monthly collateral informant reports and GGT. If unresolved inconsistencies between sources occur, then the most negative outcome will be assumed accurate.
Secondary outcome of the treatment was assessed with the following measures. Alcohol Craving Questionnaire-Short Form (ACQ-SF; Singleton et al., 1994) provides a quick assessment of current drinking urges, difficulty resisting urges and anticipation of positive outcome or relief from negative affective state by drinking (baseline and every study visit, self report, 1-2 minutes). Beck Depression Inventory (BDI; Beck et al., 1961) is a self-rating of severity of depressive symptoms (baseline and every study visit, 5 minutes). Gamma glutamyl transferase (GGT) is used as a biochemical marker of alcohol abstinence or relapse. […]

[3] = test system: non treatment-seeking volunteers with current cannabis and alcohol dependence; test: Pilot laboratory study, one week gabapentin 1200 mg/d vs placebo; assay type: in vivo, human
Experimental: This Example describes treatment of subjects suffering from cannabis dependence with gabapentin. Subjects with DSM-IV cannabis dependence were enrolled in a clinical study of treatment with gabapentin. Earlier, in a pilot laboratory study, the safety and efficacy of gabapentin 1200 mg/d in non treatment-seeking volunteers with current cannabis and alcohol dependence involving were examined in one week of chronic dosing with double-blind, randomly assigned active drug or placebo. […] The results lend support to: 1) the safety and tolerability of our drug titration schedule and the steady state dose of gabapentin 1200 mg/d in outpatients with cannabis dependence; 2) the efficacy of gabapentin 1200 mg/d in treating disturbed sleep, a key symptom of cannabis withdrawal; and 3) our ability to recruit a sample of subjects with cannabis dependence who are willing to participate in clinical research involving medication. Based on the results from this pilot study, subjects with only cannabis dependence were then recruited and treated with gabapentin, as detailed below.

[4] = test system: cue-reactive, alcohol-dependent individuals; test: Cue reactivity study, 1 week gabapentin 1200 mg vs placebo, alcohol and affective cue-induced craving; assay type: in vivo, human
Experimental: This Example describes the results of a study to examine the effectiveness of gabapentin 1200 mg for attenuating symptoms of protracted abstinence in a non treatment-seeking sample of cue-reactive, alcohol-dependent individuals. Subjects were 33 paid volunteers with current DSM-IV alcohol dependence and a strength of craving rating 1σ or greater for alcohol than water cues. Subjects were randomly assigned to gabapentin or placebo for 1-week and then participated in a within-subjects trial where each was exposed to standardized sets of pleasant, neutral, and unpleasant visual stimuli followed by alcohol or water cues. A key aspect of the study design is exposure to alcohol cues (sight and smell of the subject's favorite alcoholic beverage) without consumption. Alcohol consumption would be expected to mask the effects of any medication that targets symptoms of protracted abstinence, as either or both could attenuate such symptoms; the effects of alcohol and the drug to be tested would therefore be inextricably confounded. The design is therefore relatively novel in combining elicitation of craving while inducing both positive and negative affect (along with interaction effects) with non-consumptive alcohol cue exposure. As such it may be particularly well-suited for testing the effectiveness of pharmacological treatments intended to normalize the neurobiological imbalances associated with protracted abstinence in alcoholics.
Subject enrollment: The study was conducted at the University of Miami School of Medicine, Miami, Fla. and approved by that institution's Institutional Review Board as conforming to the ethical standards of the 1964 Declaration of Helsinki. Subjects provided written informed consent prior to participation. Subjects were non treatment-seeking paid volunteers recruited primarily through advertisements, meeting the Diagnostic and Statistical Manual of Mental Disorders, 4th Edition (DSM-IV; American Psychiatric Association, 1994) criteria for current alcohol dependence, abstinent from alcohol on the day of the study, as verified by Breath Alcohol Concentration (BAC), not in acute withdrawal as verified by a Clinical Institute Withdrawal Assessments for Alcohol (CIWA-Ar; Sullivan et al., Br J Addict 84:1353-1357, 1989) score of <8, and meeting the definition of “cue reactive”. An individual was considered cue reactive if his or her “strength of craving” score under a neutral affect condition (see Study Overview below) was ≧1 standard deviation (3 VAS rating scale points; see measures discussion) greater for alcohol than for water cues during a mini cue reactivity session. This is similar to the criterion described by Rubonis et al. (J. Stud. Alcohol. 55:487-494, 1994) to classify cue reactors. Exclusionary criteria consisted of clinically significant medical or psychiatric disorders including depression, anxiety, or dependence on substances other than alcohol and nicotine.
Study Overview and Experimental Design: Subjects meeting admission criteria were randomized to receive gabapentin 1200 mg or placebo. Because image-based affective cue reactivity was not as strong as we had anticipated, to improve statistical power we augmented the control group with untreated individuals from three otherwise-similar lab studies. Criteria for participation were the same in all cases. Dosages (matched in the placebo condition) were titrated as follows: 300 mg morning on day 1, 300 mg morning and also evening on day 2, 300 mg morning, midday and evening on day 3, and 300 mg morning and midday followed by 600 mg evening for days 4-7. On day 7 of double-blind medication, overall measures of mood, sleep, and craving were assessed. This one-week interval of chronic dosing is intended to model and predict the critical first week on medication in a Phase II or III clinical trial, when participants' experiences with sleep and mood, or side effects, can dramatically affect treatment adherence and risk for dropout. […]

[5] = % of subjects, gabapentin 1200 mg/d
[6] = gabapentin 1200 mg vs placebo, day 7, alcohol vs water cue, 0-20 rating
[7] = gabapentin 1200 mg vs placebo, day 7, alcohol vs water cue, VAS 0-20
[8] = gabapentin 1200 mg vs placebo, day 7, negative vs neutral affect cue, 0-20 rating
[9] = gabapentin 1200 mg vs placebo, day 7, negative vs neutral affect cue, VAS 0-20
[10] = gabapentin 1200 mg vs placebo, day 7, positive vs neutral affect cue, 0-20 rating
[11] = gabapentin 1200 mg vs placebo, day 7, positive vs neutral affect cue, VAS 0-20

## NCC1(CC(=O)O)CCCCC1 [gabapentin, (1-aminomethyl)-1-cyclohexaneacetic acid]
[1]; 12 weeks
  deaths or terminations due to drug-related adverse events: no deaths or terminations due to drug-related adverse events
[1]; [5]
  Adverse event: Abdominal Pain: 25%
  Adverse event: Decreased Appetite: 10%
  Adverse event: Depression: 30%
  Adverse event: Dizziness: 0%
  Adverse event: Fatigue: 15%
  Adverse event: Headache: 20%
  Adverse event: Increased Appetite: 15%
  Adverse event: Nausea: 15%
  Adverse event: Nervousness: 25%
  Adverse event: Other: 5%
[1]; both treatment groups, 2=mild
  average severity of AE's: 2.0±0.7
[1]; gabapentin 1200 mg/d, 12 weeks, p=0.11 vs placebo
  number of AE's complained of per subject: 4.0±6.7
[2]; 900 mg/d vs placebo
  BDI total score: no significant effect
  Cohen's d, drinks per drinking day: 0.82
[2]; 900 mg/d vs placebo, p<0.01
  sleep disturbance (PSQI), effect size d: −0.50
[2]; 900 mg/d vs placebo, p<0.05
  daytime dysfunction (PSQI), effect size d: −0.27
[2]; 1800 mg/d relative to placebo, p<0.05
  negative affective symptoms (BDI), effect size d: 0.33
[2]; 1800 mg/d vs placebo, p<0.01
  daytime dysfunction (PSQI), effect size d: −0.43
[2]; 1800 mg/d vs placebo
  Cohen's d, drinks per drinking day: 0.71
[2]; complete study (n=150)
  time the beneficial effect was sustained after completing treatment: up to 12 weeks
[2]; throughout the study
  deaths or serious drug-related adverse events: no deaths or serious drug-related adverse events
[2]; treatment vs placebo, trend for 900 mg/d, p<0.08
  subjective sleep quality or PSQI summary score: no significant effect
[3]
  CBC, LFT, or urinalysis values: no change from baseline
  adverse drug complaints: no adverse drug complaints of more than mild severity
[4]; 1 week, gabapentin 1200 mg vs placebo
  symptoms generating the drug-placebo difference in symptom counts: dizziness (χ^2(1)=6.1, p<0.02) and fatigue
[4]; SAFTEE-G, 1 week, gabapentin 1200 mg, standard deviation 2.7, n=30 assessed
  total symptom counts over the week on medication (mean): 3.3
[4]; [6]
  Bev x Gaba, Feel strong emotion (estimated model coefficient): 1.15
  Bev x Gaba, Like beverage (estimated model coefficient): −0.25
  Bev x Gaba, SAM Arousal (estimated model coefficient): −1.79
  Bev x Gaba, SAM Dominance (estimated model coefficient): 0.81
  Bev x Gaba, SAM Valence (estimated model coefficient): 3.28*
[4]; [7]
  Bev x Gaba, Craving Difficult to turn down (estimated model coefficient): −1.31^††
  Bev x Gaba, Craving Drink Now (estimated model coefficient): −1.96^†
  Bev x Gaba, Craving Make Things Perfect (estimated model coefficient): 0.23
  Bev x Gaba, Craving Strength (estimated model coefficient): −2.16^†
[4]; [8]
  Aff− x Gaba, Feel strong emotion (estimated model coefficient): −1.29
  Aff− x Gaba, Like beverage (estimated model coefficient): 0.98
  Aff− x Gaba, SAM Arousal (estimated model coefficient): −4.92*
  Aff− x Gaba, SAM Dominance (estimated model coefficient): 1.30
  Aff− x Gaba, SAM Valence (estimated model coefficient): 1.25
[4]; [9]
  Aff− x Gaba, Craving Difficult to turn down (estimated model coefficient): 1.26
  Aff− x Gaba, Craving Drink Now (estimated model coefficient): 0.58
  Aff− x Gaba, Craving Make Things Perfect (estimated model coefficient): 0.20
  Aff− x Gaba, Craving Strength (estimated model coefficient): 0.96
[4]; [10]
  Aff+ x Gaba, Feel strong emotion (estimated model coefficient): −1.08
  Aff+ x Gaba, Like beverage (estimated model coefficient): −0.04
  Aff+ x Gaba, SAM Arousal (estimated model coefficient): −3.22^†
  Aff+ x Gaba, SAM Dominance (estimated model coefficient): 0.80
  Aff+ x Gaba, SAM Valence (estimated model coefficient): 0.21
[4]; [11]
  Aff+ x Gaba, Craving Difficult to turn down (estimated model coefficient): −1.34^††
  Aff+ x Gaba, Craving Drink Now (estimated model coefficient): 0.16
  Aff+ x Gaba, Craving Make Things Perfect (estimated model coefficient): 0.44
  Aff+ x Gaba, Craving Strength (estimated model coefficient): 0.25
[4]; gabapentin vs. placebo, n=28
  ARCI scores on five drug-of-abuse groups (abuse potential): no statistically significant differences
